Experimental findings from patent US20250262222A1, “HETEROCYCLIC COMPOUNDS, COMPOSITIONS THEREOF, AND METHODS OF TREATMENT THEREWITH” (BeiGene Switzerland GmbH, priority 2022, published 2025) are described below.

One series is described as follows: Mouse and rat PK study. As to conditions: compared to dibasic G12D inhibitors (e.g., Example 17). It counts as in vivo, male CD-1 mice or SD-JVC rats. As for the experimental part: The pharmacokinetics of compounds were evaluated in male CD-1 mice or SD-JVC rats via intravenous and oral administration. For intravenous administration study, test compounds were dissolved in DMA:30% Solutol HS 15(w/v): Saline (20:20:60, by volume) and injected with a 1 mg/kg dose via tail vein. For oral administration study, test compounds were dissolved in 0.5% MC or PEG400/Phosal 50 PG/EtOH (30/60/10, by volume) and administrated to mice at 10 mg/kg or 30 mg/kg by gavage. Animals will be grouped and treated according to body weight. At the time points after dosing (5 (IV only), 15, and 30 min and 1, 2, 4, 8 and 24 h after administration), Rat blood samples will be collected from JVC, Mice will be anesthetized by isoflurane and blood samples will be collected from orbital bleeding. Blood samples will be collected into 1.5 mL EDTA.K2 coated EP tube. Approximately 50 μL blood (Mouse) and 150 μL blood (Rat) were collected at each time point and placed on ice, then centrifuge at 5600 rpm 7 min at 4° C. to obtain plasma. Plasma will be transferred into new tube and stored at −20° C. or dry ice temporary. The samples will be stored at −80° C. until ex vivo PK assay.
Plasma concentrations were determined via the following sample processing method and measurement conditions. An aliquot of 10 μL sample was added with 200 μL IS (Terfenadine, 5 ng/mL) in ACN. […]

Series [1] is described as follows: Gastrointestinal accumulation and toxicity, mono-basic vs dibasic G12D inhibitors (method not described). It is filed as in vivo. As to conditions: compared to dibasic G12D inhibitors (e.g., Example 17).
Series [2] concerns pERK1/2(THR202/TYR204) level in AsPC-1 cell line. Put plainly: KRAS G12D pERK assay. It is filed as cell-based. The settings on record: Homo sapiens, ASPC1, 2 h, AsPC-1 cells, 2 h compound treatment, HTRF. The gist of the method:
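AsPC-1 (KRAS G12D) cells, 30000/well, seeded overnight, then treated 2 h with a 10-point series at 0 to 10 μM final. Lysate pERK1/2 (Thr202/Tyr204) detected by HTRF after overnight antibody incubation at room temperature; IC50 from percent inhibition versus log concentration.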

On to `Nc1cc(Cl)c(C(F)(F)F)c(-c2nc3c4c(nc(OCC56COC(C5)C6)nc4c2F)N2C[C@H]4CC[C@H](N4)C2CCO3)c1` (stereo partly drawn) [Example 23, 3-((7S,10R)-13-((2-oxabicyclo[2.1.1]hexan-4-yl)methoxy)-1-fluoro-5,6,6a,7,8,9,10,11-octahydro-4-oxa-3,11a,12,14,15-pentaaza-7,10-methanocyclohepta[4,5]cycloocta[1,2,3-de]naphthalen-2-yl)-5-chloro-4-(trifluoromethyl)aniline], for which, in “Mouse and rat PK study”, the oral exposure result is on record as “enhanced oral exposure”. In series [1], the gastrointestinal accumulation result is “reduced gastrointestinal accumulation” and the toxicity result is given as “reduced toxicity”. In series [2], the IC50 is 114 nM.
